Measurements taken from patent publication US20090312322A1, “Use of Oxindole Derivatives in the Treatment of Dementia Related Diseases, Alzheimer's Disease and Conditions Associated with Glycogen Synthase Kinase-3” (AstraZeneca AB, priority 2001, published 2009).

First: COc1cc2c(C3C(=O)Nc4c(F)cccc43)ncnc2cc1OCCCN1CCOCC1.Cl.Cl (stereo not shown)
Second: CNC(=O)c1ccc2c(c1)C(c1ncnc3cc(OCCCN4CCOCC4)ccc13)C(=O)N2 (stereo not shown) [Example 44, 3-[7-(3-Morpholin-4-yl-propoxy)-quinazolin-4-yl]-2-oxo-2,3-dihydro-1H-indole-5-carboxylic acid methylamide]
The melting point of the first is higher: 211 to 214 °C for the first, 195 to 198 °C for the second.

For `CN(C)C(=O)c1ccc2c(c1)C(c1ncnc3cc(OCCCN4CCOCC4)ccc13)C(=O)N2` (stereo not shown) [Example 43, 3-[7-(3-Morpholin-4-yl-propoxy)quinazolin-4-yl]-2-oxo-2,3-dihydro-1H-indole-5-carboxylic acid dimethylamide], the melting point was 167.5 to 168.7 °C.

In the case of `CN1CCN(CCCOc2ccc3c(C4C(=O)Nc5ccc(C#N)cc54)ncnc3c2)CC1.Cl.Cl` (stereo not shown), the melting point is reported as 200 °C (dec.).
